# Assays:
# [1] = target: Gamma-aminobutyric acid receptor subunit alpha-1/alpha-2/beta-2/gamma-2 (Homo sapiens, UniProt P14867+P18507+P47869+P47870); type: protein-complex assay
# [2] = target: Gamma-aminobutyric acid receptor subunit alpha-1 (Rattus norvegicus, UniProt P62813)
# [3] = target: T1, Alpha-2A adrenergic receptor (Homo sapiens, UniProt P08913); type: functional, cell-based
# T1 sequence (P08913 whole entry): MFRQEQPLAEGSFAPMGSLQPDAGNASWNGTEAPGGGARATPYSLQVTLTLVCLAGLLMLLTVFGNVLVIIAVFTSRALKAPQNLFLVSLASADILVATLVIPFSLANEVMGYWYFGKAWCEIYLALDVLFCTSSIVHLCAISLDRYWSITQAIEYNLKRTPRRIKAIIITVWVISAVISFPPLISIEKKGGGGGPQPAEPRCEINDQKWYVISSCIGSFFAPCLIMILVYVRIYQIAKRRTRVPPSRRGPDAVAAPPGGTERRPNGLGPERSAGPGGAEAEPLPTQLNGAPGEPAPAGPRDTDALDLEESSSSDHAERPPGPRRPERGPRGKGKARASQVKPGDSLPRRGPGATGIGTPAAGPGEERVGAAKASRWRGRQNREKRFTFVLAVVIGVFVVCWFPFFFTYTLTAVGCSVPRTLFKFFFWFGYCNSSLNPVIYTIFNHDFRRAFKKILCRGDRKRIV
# [4] = target: T1, Alpha-2A adrenergic receptor; type: functional, cell-based; remark: listed apart in the source
# [5] = target: Beta-1 adrenergic receptor (Homo sapiens, UniProt P08588); type: functional
# Vasopressin V2 receptor = Vasopressin V2 receptor (Homo sapiens, UniProt P30518)
# B2 bradykinin receptor = target: T2, B2 bradykinin receptor (Homo sapiens, UniProt P30411)
# T2 sequence (P30411 whole entry): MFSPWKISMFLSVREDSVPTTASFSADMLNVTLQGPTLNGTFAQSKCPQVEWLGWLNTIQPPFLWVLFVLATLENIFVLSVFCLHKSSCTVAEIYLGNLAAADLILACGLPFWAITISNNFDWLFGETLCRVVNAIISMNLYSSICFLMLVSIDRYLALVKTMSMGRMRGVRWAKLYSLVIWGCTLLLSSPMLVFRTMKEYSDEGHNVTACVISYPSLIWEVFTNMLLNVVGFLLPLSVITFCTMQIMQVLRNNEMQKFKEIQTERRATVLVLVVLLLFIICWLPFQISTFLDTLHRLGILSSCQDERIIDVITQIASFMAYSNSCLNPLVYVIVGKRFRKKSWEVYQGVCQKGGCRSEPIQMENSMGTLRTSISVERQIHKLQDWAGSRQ
# [6] = target: T3, Cholecystokinin receptor type A (Homo sapiens, UniProt P32238)
# T3 sequence (P32238 whole entry): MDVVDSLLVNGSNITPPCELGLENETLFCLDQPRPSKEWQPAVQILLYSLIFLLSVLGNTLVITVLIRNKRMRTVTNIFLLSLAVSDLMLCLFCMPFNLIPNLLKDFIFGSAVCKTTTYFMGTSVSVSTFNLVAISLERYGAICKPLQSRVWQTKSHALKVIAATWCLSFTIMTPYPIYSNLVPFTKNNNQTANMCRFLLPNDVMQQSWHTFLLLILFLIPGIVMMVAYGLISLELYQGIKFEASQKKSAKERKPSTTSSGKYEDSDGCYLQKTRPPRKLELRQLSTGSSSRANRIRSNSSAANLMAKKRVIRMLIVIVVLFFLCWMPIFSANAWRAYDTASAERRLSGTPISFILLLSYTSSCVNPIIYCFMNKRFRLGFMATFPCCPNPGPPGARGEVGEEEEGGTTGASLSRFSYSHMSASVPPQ
# D(1A) dopamine receptor = D(1A) dopamine receptor (Homo sapiens, UniProt P21728); type: functional, cell-based
# [7] = target: Growth hormone secretagogue receptor type 1 (Homo sapiens, UniProt Q92847)
# [8] = target: Glutamate receptor ionotropic, NMDA 1 (Rattus norvegicus, UniProt P35439)
# Histamine H2 receptor = Histamine H2 receptor (Homo sapiens, UniProt P25021); type: functional, cell-based
# [9] = target: Kappa-type opioid receptor (Homo sapiens, UniProt P41145)
# [10] = target: T4, Amine oxidase [flavin-containing] A (Homo sapiens, UniProt P21397); type: functional
# T4 sequence (P21397 whole entry): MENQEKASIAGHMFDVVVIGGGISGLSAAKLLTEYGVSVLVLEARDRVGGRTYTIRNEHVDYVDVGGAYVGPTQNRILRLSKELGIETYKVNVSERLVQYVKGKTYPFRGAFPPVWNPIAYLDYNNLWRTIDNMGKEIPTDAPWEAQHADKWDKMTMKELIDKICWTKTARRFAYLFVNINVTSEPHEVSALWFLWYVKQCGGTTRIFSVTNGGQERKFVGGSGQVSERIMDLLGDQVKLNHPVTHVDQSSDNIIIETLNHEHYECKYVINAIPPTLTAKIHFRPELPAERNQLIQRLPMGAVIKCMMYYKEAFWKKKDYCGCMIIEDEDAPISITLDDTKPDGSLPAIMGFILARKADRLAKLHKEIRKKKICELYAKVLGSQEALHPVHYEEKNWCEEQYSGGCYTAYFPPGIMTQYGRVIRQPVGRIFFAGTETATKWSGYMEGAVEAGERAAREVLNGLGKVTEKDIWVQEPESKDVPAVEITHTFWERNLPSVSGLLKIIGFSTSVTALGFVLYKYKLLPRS
# [11] = target: cGMP-inhibited 3',5'-cyclic phosphodiesterase 3A (Homo sapiens, UniProt Q14432); type: functional
# Also: assay procedure not described here.
# Gamma-aminobutyric acid receptor subunit alpha-1/alpha-2/beta-2/gamma-2, sequence (P14867 whole entry): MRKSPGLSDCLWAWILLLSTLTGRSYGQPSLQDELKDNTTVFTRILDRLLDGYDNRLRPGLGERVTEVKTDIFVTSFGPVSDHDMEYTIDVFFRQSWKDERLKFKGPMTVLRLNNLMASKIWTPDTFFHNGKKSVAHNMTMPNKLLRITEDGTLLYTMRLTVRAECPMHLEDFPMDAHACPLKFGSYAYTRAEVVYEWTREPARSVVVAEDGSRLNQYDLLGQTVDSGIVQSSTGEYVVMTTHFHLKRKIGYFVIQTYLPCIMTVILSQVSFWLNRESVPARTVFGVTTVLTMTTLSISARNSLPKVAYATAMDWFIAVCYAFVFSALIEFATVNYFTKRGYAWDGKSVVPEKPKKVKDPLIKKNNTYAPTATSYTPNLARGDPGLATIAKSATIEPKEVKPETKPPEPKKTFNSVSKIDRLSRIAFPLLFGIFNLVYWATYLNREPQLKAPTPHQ
# Gamma-aminobutyric acid receptor subunit alpha-1/alpha-2/beta-2/gamma-2, sequence (P47870 whole entry): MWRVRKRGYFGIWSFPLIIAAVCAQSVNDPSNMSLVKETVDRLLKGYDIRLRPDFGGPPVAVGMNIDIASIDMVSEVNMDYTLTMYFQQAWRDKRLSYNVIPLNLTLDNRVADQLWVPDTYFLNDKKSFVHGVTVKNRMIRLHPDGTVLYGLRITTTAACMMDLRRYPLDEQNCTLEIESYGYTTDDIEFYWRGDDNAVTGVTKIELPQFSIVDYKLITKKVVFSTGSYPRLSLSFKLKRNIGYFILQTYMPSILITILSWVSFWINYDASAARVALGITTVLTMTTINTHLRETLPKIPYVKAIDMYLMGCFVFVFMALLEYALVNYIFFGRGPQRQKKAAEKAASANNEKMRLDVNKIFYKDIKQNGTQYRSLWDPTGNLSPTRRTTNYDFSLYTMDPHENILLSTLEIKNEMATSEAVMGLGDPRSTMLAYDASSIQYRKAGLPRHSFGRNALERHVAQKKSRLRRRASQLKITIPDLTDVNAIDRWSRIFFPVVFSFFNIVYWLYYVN
# Gamma-aminobutyric acid receptor subunit alpha-1/alpha-2/beta-2/gamma-2, sequence (P18507 whole entry): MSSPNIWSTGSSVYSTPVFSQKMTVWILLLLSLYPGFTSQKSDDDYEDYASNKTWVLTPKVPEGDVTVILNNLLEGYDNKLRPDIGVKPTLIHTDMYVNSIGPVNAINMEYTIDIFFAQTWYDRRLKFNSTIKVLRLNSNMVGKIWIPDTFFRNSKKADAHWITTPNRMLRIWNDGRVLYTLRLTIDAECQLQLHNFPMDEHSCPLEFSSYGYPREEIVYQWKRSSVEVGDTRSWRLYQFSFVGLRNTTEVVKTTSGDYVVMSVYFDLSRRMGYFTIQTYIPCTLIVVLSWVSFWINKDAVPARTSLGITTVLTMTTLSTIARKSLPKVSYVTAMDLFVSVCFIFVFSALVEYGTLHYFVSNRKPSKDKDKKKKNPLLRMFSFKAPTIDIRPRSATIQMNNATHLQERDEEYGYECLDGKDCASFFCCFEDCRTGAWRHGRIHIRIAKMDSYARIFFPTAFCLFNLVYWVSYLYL
# Gamma-aminobutyric acid receptor subunit alpha-1/alpha-2/beta-2/gamma-2, sequence (P47869 whole entry): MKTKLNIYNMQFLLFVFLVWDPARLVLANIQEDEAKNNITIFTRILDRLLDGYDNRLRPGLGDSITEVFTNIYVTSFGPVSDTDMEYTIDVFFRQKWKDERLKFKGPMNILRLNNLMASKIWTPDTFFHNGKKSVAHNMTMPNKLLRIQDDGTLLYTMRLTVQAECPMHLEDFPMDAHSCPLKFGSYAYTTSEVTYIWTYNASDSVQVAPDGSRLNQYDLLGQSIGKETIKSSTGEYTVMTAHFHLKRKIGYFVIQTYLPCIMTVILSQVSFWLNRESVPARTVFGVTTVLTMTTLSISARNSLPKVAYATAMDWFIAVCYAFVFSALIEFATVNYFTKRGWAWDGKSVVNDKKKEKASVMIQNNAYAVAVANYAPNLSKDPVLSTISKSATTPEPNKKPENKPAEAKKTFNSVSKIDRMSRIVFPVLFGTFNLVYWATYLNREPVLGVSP
# cGMP-inhibited 3',5'-cyclic phosphodiesterase 3A, sequence (Q14432 whole entry): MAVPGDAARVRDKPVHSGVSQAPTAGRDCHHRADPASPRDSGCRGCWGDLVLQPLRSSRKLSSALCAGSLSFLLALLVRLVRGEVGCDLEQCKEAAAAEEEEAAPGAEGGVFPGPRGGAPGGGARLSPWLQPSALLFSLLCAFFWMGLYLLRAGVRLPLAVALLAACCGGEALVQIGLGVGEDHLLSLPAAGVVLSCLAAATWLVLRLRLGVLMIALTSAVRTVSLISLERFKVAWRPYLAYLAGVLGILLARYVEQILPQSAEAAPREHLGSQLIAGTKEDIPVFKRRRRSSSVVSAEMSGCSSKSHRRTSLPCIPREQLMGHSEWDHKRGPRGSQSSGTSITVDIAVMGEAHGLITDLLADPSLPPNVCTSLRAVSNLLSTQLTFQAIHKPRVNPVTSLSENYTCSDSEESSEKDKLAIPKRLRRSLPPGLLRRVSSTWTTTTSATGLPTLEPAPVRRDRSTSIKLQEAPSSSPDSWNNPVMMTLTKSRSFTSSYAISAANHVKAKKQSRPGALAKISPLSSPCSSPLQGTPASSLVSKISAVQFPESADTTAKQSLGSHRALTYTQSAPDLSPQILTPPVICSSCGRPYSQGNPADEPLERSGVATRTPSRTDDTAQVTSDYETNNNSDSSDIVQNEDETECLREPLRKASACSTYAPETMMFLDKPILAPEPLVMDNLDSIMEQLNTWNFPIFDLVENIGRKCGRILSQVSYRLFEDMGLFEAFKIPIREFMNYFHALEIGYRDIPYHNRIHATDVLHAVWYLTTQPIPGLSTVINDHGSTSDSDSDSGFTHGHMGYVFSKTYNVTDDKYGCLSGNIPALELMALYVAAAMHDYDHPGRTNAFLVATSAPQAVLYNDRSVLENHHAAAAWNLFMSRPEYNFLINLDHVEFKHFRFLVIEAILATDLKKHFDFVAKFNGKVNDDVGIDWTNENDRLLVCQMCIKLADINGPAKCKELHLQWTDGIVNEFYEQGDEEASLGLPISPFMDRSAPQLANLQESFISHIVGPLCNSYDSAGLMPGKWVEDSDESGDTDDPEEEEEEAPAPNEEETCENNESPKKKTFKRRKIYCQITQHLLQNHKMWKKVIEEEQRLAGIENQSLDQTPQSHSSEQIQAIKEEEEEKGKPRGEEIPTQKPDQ
# Beta-1 adrenergic receptor, sequence (P08588 whole entry): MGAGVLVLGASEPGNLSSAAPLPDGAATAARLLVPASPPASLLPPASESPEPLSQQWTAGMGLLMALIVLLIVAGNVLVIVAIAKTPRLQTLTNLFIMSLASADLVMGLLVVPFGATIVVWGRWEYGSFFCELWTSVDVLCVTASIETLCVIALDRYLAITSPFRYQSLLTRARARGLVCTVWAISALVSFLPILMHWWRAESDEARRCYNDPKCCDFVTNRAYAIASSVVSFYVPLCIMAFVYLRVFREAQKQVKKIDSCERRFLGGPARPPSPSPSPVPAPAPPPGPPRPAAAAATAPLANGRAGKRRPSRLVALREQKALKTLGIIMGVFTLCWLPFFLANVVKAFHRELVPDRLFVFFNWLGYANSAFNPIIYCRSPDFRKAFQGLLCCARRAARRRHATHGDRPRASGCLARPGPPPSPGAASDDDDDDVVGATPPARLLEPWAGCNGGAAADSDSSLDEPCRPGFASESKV
# Gamma-aminobutyric acid receptor subunit alpha-1, sequence (P62813 whole entry): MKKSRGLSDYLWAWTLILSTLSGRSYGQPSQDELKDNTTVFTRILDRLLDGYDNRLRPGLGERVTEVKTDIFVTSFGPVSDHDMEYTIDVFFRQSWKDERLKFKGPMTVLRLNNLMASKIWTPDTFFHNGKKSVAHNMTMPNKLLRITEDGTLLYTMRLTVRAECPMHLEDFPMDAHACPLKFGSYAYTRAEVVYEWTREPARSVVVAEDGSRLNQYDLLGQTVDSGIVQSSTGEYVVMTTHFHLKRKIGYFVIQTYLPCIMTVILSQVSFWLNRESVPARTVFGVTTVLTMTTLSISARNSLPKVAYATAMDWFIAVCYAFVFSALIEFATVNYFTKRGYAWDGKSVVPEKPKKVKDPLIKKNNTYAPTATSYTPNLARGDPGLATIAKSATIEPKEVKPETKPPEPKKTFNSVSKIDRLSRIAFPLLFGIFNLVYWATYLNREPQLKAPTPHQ
# Histamine H2 receptor, sequence (P25021 whole entry): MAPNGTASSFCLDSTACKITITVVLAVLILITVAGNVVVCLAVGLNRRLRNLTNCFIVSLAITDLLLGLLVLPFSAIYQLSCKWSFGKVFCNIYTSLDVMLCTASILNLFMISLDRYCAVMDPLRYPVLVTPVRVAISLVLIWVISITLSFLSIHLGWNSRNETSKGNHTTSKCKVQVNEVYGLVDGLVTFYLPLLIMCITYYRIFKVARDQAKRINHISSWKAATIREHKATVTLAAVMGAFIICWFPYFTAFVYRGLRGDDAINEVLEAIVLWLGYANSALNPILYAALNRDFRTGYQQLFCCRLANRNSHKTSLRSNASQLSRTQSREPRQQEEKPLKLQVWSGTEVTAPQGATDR
# Vasopressin V2 receptor, sequence (P30518 whole entry): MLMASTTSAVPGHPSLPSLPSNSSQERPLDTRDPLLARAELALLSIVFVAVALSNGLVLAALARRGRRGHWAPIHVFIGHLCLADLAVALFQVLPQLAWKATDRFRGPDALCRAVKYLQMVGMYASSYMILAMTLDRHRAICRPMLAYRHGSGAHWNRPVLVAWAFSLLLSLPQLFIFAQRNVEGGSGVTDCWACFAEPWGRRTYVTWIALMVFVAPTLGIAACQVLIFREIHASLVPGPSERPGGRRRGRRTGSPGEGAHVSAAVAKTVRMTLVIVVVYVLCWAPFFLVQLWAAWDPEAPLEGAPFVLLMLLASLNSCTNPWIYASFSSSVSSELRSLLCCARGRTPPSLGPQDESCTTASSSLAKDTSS
smiles,measurement,setting,value
O=C(Oc1ccccc1C(=O)O)c1ccccc1O [SALSALATE],AC50,[1],> 30 µM
same,AC50,[2],> 30 µM
CNC(=O)Oc1ccc2c(c1)[C@]1(C)CCN(C)[C@@H]1N2C [PHYSOSTIGMINE],AC50,[3],> 30 µM
same,AC50,[4],> 30 µM
same,AC50,[5],> 30 µM
same,AC50,Vasopressin V2 receptor,> 30 µM
same,AC50,B2 bradykinin receptor,> 30 µM
same,AC50,[6],> 30 µM
same,AC50,D(1A) dopamine receptor,> 30 µM
same,AC50,[1],> 30 µM
same,AC50,[7],> 30 µM
same,AC50,[8],> 30 µM
same,AC50,Histamine H2 receptor,> 30 µM
same,AC50,[9],2.2 µM
same,AC50,[10],> 30 µM
same,AC50,[11],> 30 µM
c1cc(CN2CCCNCCNCCCNCC2)ccc1CN1CCCNCCNCCCNCC1 [PLERIXAFOR],AC50,[1],> 30 µM
O=C(O)CC(O)(CC(=O)O)C(=O)O [CITRIC ACID],AC50,[1],> 30 µM
C1CNCCN1 [PIPERAZINE],AC50,[1],> 30 µM
same,AC50,[2],> 30 µM
Cc1onc(-c2c(Cl)cccc2Cl)c1C(=O)N[C@@H]1C(=O)N2[C@@H]1SC(C)(C)[C@@H]2C(=O)O [DICLOXACILLIN],AC50,[1],> 30 µM
N[C@@H](Cc1c[nH]c2ccc(O)cc12)C(=O)O [OXITRIPTAN],AC50,[1],> 30 µM
CCSc1ccc2c(c1)N(CCCN1CCN(C)CC1)c1ccccc1S2 [THIETHYLPERAZINE],AC50,[5],> 30 µM
same,AC50,[1],> 30 µM
same,AC50,[10],> 30 µM
same,AC50,[11],> 30 µM
COc1cc([C@@H]2c3cc4c(cc3[C@@H](O[C@@H]3O[C@@H]5CO[C@@H](c6cccs6)O[C@H]5[C@H](O)[C@H]3O)[C@H]3COC(=O)[C@H]23)OCO4)cc(OC)c1O [TENIPOSIDE],AC50,[1],> 30 µM
CCN(CC)CCOC(=O)C(Cc1cccc2ccccc12)CC1CCCO1 (centres undefined) [NAFRONYL],AC50,[1],> 30 µM
CO[C@H]1/C=C/O[C@@]2(C)Oc3c(C)c(O)c4c(O)c(cc(O)c4c3C2=O)NC(=O)/C(C)=C\C=C\[C@H](C)[C@H](O)[C@@H](C)[C@@H](O)[C@@H](C)[C@H](OC(C)=O)[C@@H]1C [RIFAMYCIN],AC50,[1],> 30 µM
